According to patent publication US20050271739A1, “Methods and compositions for accelerating alcohol metabolism” (priority 2004, published 2005):
Several values for one entry are separate records, joined by “and”; a condition that tells them apart may be missing. Identical values can stand only once.

Experiments:
[1] = system: alcohol dehydrogenase; test: Effect of thyroxine analogues on alcohol dehydrogenase activity; assay type: biochemical; conditions: for Relative Increase (%): None = 100
[2] = system: malate-aspartate shuttle in rabbit liver mitochondria; test: NADH oxidation by malate-aspartate shuttle in liver mitochondria; assay type: biochemical; conditions: for Effect on oxidation of NADH: added to rabbit liver mitochondria
[3] = system: alcohol dehydrogenase; test: Effect of hormonal compounds on enzyme activity of alcohol dehydrogenase; assay type: biochemical; design: Relative activity (%): concentration or dose not given beside the values; conditions: for Relative activity (%): Control = 100.0
[4] = blood alcohol reading; cited from earlier work
[5] = system: oxidation of ethanol and acetaldehyde; test: Absorbance change of pig liver extract without INT (340 nm) and with INT (500 nm); assay type: biochemical; conditions: animal glandular extract, in the presence of INT
Method: Phosphate buffer: 0.05 M (pH=7.5); INT: 12.7 mM; ethanol: 1.0% (V/V); aldehyde: 17.6 mM. No NAD was added.
As described in testing method f, in the presence of diaphorases, INT is reduced to forzaman, while NADH is oxidized to NAD in a 1:1 mole stoichiometric ratio. Therefore, the increase in the absorbance at 500 nm is directly proportional to the concentration of forzaman.
FIG. 3 and Table 4 show the change of absorbance at 500 nm versus time. […] Since NAD and NADH are high very difficult to purify, the costs of use of external high purity NAD has been proven to be prohibitively high. The present invention provides a cost-effective method for preparing the enzyme-coenzyme formulation.

[6] = system: aldehyde dehydrogenase; test: Thyroxine stimulation of aldehyde dehydrogenase activity; assay type: biochemical
Source text: Thyroxine has extremely high stimulating effect on the enzyme activity of alcohol dehydrogenases and aldehyde dehydrogenases. […] Some are as twice effective as thyroxine at the same concentration.

[7] = system: Alcohol dehydrogenase (from Sigma Aldrich Chemical Company); test: Alcohol dehydrogenase activity vs. NAD concentration; assay type: biochemical; conditions: Tris Buffer pH 8.5, ethanol 3% (V/V), ADH 5 units, 340 nm
Method: Testing conditions: 0.05 M Tris Buffer (pH=8.5); ethanol=3% (V/V); Alcohol dehydrogenase (from Sigma Aldrich Chemical Company): 5 units. ADH activity was determined by measuring absorbance change at 340 nm.

[8] = system: alcohol dehydrogenase prepared from yeast extract; test: NAD regeneration through coupling reactions with yeast extract ADH, INT and diaphorase; assay type: biochemical; conditions: 0.5 mM and 2.0 mM NAD, ethanol 1.0% (V/V), pH 7.5
Method: Phosphate buffer: 0.05 M (pH=7.5); ethanol: 1.0% (V/V). There was no absorbance change in the absence of NAD.
Phosphate buffer: 0.05 M (pH=7.5); INT: 12.7 mM; ethanol: 1.0% (V/V); NAD=2.0 mM; Diaphorase: 2 units.
In this example, the INT system was selected to illustrate the effectiveness of the regeneration of NAD by coupling compounds, since the reaction product, i.e., formazan, gives a maximum absorbance at 500 nm. Then the coupling reactions (see FIG. 6) can be directly quantified by spectrophotometric measurements.

[9] = system: blood alcohol; test: In vivo test of alcohol metabolism by dog (blood alcohol reading)
Method: Dog body weight: 13.9 kilograms. 42 grams of alcohol was administrated at time 0. ●—Control (i.e., no further treatment in the first 5 hours); ▪—10 grams pyruvate was administrated orally at 5 hours; ▴ 10 grams of alanine was administrated at 1.5 hour and then 5 hours.
In this example, the effectiveness of using compositions described above for accelerating alcohol metabolism was validated by in vivo tests with dogs. Six dogs (as described in Table 9) were used in the in vivo tests. The dogs were fasted 12 to 16 hours and then given 20% alcohol orally in a dose of 3 g/kg body weight. Approximately 1.5 hours were allowed for complete absorption and distribution of the alcohol. Blood samples were taken from the leg veins. The blood alcohol reading (BAR) was determined by measuring alcohol concentration in blood using the Sigma Aldrich alcohol assay method (Assay No. 333).

[10] = average of the dog tests, 5 or 10 g

Compound: NC(Cc1ccc(Oc2ccc(O)cc2)cc1)C(=O)O (racemic) [DL-thyronine]
- Absorbance Change (units/min @ 340 nm) ([1]; Dosage 17 μM): 0.535 units/min
- Relative Increase (%) ([1]; Dosage 17 μM): 535%

Compound: O=C([O-])CC(O)C(=O)[O-].[Na+].[Na+] (racemic) [malate, DL-Hydroxybutanedioic acid]
- Effect on oxidation of NADH [2]: substantially increases the oxidation of NADH
- Relative effectiveness in NADH oxidation ([2]; malate vs. aspartate): more effective than aspartate

Compound: O=C(O)CCc1cc(I)c(Oc2cc(I)c(O)c(I)c2)c(I)c1 [3,3,5,5′-tetraiodothyropropionic acid]
- Absorbance Change (units/min @ 340 nm) ([1]; Dosage 17 μM): 0.75 units/min
- Relative Increase (%) ([1]; Dosage 17 μM): 750%

Compound: O=C(O)Cc1cc(I)c(Oc2ccc(O)c(I)c2)c(I)c1 [3,3′5-triiodothyroacetic acid]
- Absorbance Change (units/min @ 340 nm) ([1]; Dosage 17 μM): 0.715 units/min
- Relative Increase (%) ([1]; Dosage 17 μM): 715%

Compound: O=C(O)CCc1cc(I)c(Oc2ccc(O)c(I)c2)c(I)c1 [3,3′5-triiodothyropropionic acid]
- Absorbance Change (units/min @ 340 nm) ([1]; Dosage 17 μM): 0.676 units/min
- Relative Increase (%) ([1]; Dosage 17 μM): 676%

Compound: O=C(O)CCc1ccc(Oc2cc(I)c(O)c(I)c2)c(I)c1 [3,3′5′-triiodothyropropionic acid]
- Absorbance Change (units/min @ 340 nm) ([1]; Dosage 17 μM): 0.865 units/min
- Relative Increase (%) ([1]; Dosage 17 μM): 865%

Compound: N[C@@H](Cc1cc(Br)c(Oc2ccc(O)c(I)c2)c(Br)c1)C(=O)O [3,5-dibromo-3′-iodo-thyronine]
- Absorbance Change (units/min @ 340 nm) ([1]; Dosage 17 μM): 0.48 units/min
- Relative Increase (%) ([1]; Dosage 17 μM): 480%

Compound: N[C@@H](Cc1cc(I)c(O)c(I)c1)C(=O)O [3,5-diiodo-l-thyrosine]
- Absorbance Change (units/min @ 340 nm) ([1]; Dosage 170 μM): 0.256 units/min
- Relative Increase (%) ([1]; Dosage 170 μM): 256%
- Absorbance Change (units/min @ 340 nm) ([1]; Dosage 340 μM): 0.36 units/min
- Relative Increase (%) ([1]; Dosage 340 μM): 360%

Compound: C[C@]12CCC(=O)C=C1CC[C@@H]1[C@@H]2CC[C@]2(C)C(=O)CC[C@@H]12 [4-Androsterone-3,17-dione]
- Relative activity (%) [3]: 128%

Compound: CCO [Alcohol, ethanol]
- Anesthetic effects (BAR) [4]: (0.30-0.40%)
- Death; LD50 (BAR) [4]: (0.45-0.50%)

Compound: C[C@]12CC[C@@H](O)C[C@@H]1CC[C@@H]1[C@@H]2CC[C@]2(C)C(=O)CC[C@@H]12 [Androsterone]
- Relative activity (%) [3]: 119%

Compound: C[C@]12C[C@H](O)[C@H]3[C@@H](CCC4=CC(=O)CC[C@@]43C)[C@@H]1CC[C@@H]2C(=O)CO [Corticosterone]
- Relative activity (%) [3]: 112%

Compound: C[C@]12CCC(=O)C=C1CC[C@@H]1[C@@H]2C(=O)C[C@@]2(C)[C@H]1CC[C@]2(O)C(=O)CO [Cortisone]
- Relative activity (%) [3]: 116%

Compound: C[C@]12CC[C@H](O)CC1=CC[C@@H]1[C@@H]2CC[C@]2(C)C(=O)CC[C@@H]12 [Dehydroepi-androsterone]
- Relative activity (%) [3]: 200%

Compound: C[C@]12CC[C@H]3[C@@H](CCC4=CC(=O)CC[C@@]43C)[C@@H]1CC[C@@H]2C(=O)CO [Deoxycorticosterone]
- Relative activity (%) [3]: 115%

Compound: CC/C(=C(/CC)c1ccc(O)cc1)c1ccc(O)cc1 [Diethylstilbestrol]
- Increase of alcohol dehydrogenase activity ([3]; as low as 10 μM): more than 100%

Compound: O=[N+]([O-])c1ccc(-n2nc(-c3ccccc3)n[n+]2-c2ccc(I)cc2)cc1.[Cl-] [INT]
- Effect of INT on oxidation of ethanol and acetaldehyde [5]: enhanced substantially

Compound: N[C@@H](Cc1cc(I)c(Oc2cc(I)c(O)c(I)c2)c(I)c1)C(=O)O [L-thyroxine, L-Thyroxine]
- Absorbance Change (units/min @ 340 nm) ([1]; Dosage 17 μM): 0.30 units/min
- Relative Increase (%) ([1]; Dosage 17 μM): 300%
- Increase of enzyme activity ([6]; as little as 2 μM): > 100%
- Effect on alcohol and aldehyde dehydrogenases at high dosages ([6]; high dosages): becomes an inhibitor of the enzymes

Compound: NC(=O)c1ccc[n+]([C@@H]2O[C@H](COP(=O)([O-])OP(=O)(O)OC[C@H]3O[C@@H](n4cnc5c(N)ncnc54)[C@H](O)[C@@H]3O)[C@@H](O)[C@H]2O)c1 [NAD, Nicotinamide Adenine Dinucleotide (NAD)]
- Alcohol oxidation by alcohol dehydrogenase vs. NAD concentration [7]: increases with increasing NAD concentration
- Absorbance on addition of NAD [8]: increases the absorbance

Compound: CC(=O)[C@H]1CC[C@H]2[C@@H]3CCC4=CC(=O)CC[C@]4(C)[C@H]3CC[C@]12C [Progesterone]
- Relative activity (%) [3]: 120%

Compound: CC12CCC(=O)C=C1CCC1C2CCC2(C)C(O)CCC12 (centres unmarked) [Testerone]
- Relative activity (%) [3]: 137%

Compound: CC(=O)C(=O)[O-].[Na+] [sodium pyruvate, Pyruvic acid sodium salt]
- BAR Reduction Rate after first dose, Average [9, 10]: 211.4 ppm/hr
- BAR Reduction Rate after second dose, Average [9, 10]: 197.9 ppm/hr
- BAR Reduction Rate after first dose ([9]; dog, oral, 5 g, first dosing at 266-410 min after ethanol 3 g/kg, sodium salt): 212 ppm/hr and 160 ppm/hr and 253 ppm/hr and 252 ppm/hr
- BAR Reduction Rate after second dose ([9]; dog, oral, 10 g, second dosing at 310-464 min, sodium salt): 256 ppm/hr and 230 ppm/hr

Compound: SodiumL-aspartate
- Effect on oxidation of NADH [2]: substantially increases the oxidation of NADH
